Results reported in US9468208B2, “Disease control with tick phospholipase A2” (The United States of America, as represented by the …, priority 2009, dated 2016).

Experiments:
B. burgdorferi = test: Borreliacidal assay of saliva alone versus saliva plus phospholipase A2 inhibitor OPC; format: cell-based, Borrelia burgdorferi; conditions: 24 hrs, A. americanum saliva plus OPC 5-40 μM; culture controls 79
Protocol: Gel filtration fractionation of A. americanum saliva produces individual fractions with borreliacidal activity. Saliva is fractionated into 11 molecular weight pools by gel filtration and then tested by a borreliacidal assay as described by Zeidner, et al. 2009. Briefly, A. americanum saliva is size fractionated on a Superdex 200 column run with 25 mM NaCl dissolved in 5 mM HEPES (pH 7.6) at a flow rate of 0.5 ml per minute. The separation is monitored at […]. Fractions are collected at 1 minute intervals into siliconized eppendorf tubes. Each collected fraction is subsequently concentrated to 100 μl using a SpeedVac. 50 μl aliquots of the fractions are pooled according to the major molecular weight peaks at between 2 and 10 fractions per pool. Each pool is subsequently concentrated to 50 μl using Micron-3K filters (Millipore, Billerica, Mass.).
Inhibition of A. americanum borreliacidal activity using oleyloxyethyl phosphorylcholine (OPC) identifies phospholipase A2 as an active component of A. americanum saliva. The borreliacidal assay of Example 6 is performed comparing saliva alone with saliva plus the phospholipase A2 inhibitor OPC. […]

[1] = test system: B31 B. burgdorferi isolates; test: B. burgdorferi viability, live/dead BacLight staining counts; format: cell-based, Borrelia burgdorferi; conditions: 35° C., BSK-H, starting 155 live spirochetes per field
Protocol: Evaluation of PLA2 protein regulation of B. burgdorferi viability. Analyses of PLA2 protein is performed essentially as described by Ledin, K. E., et al., Med. Vet. Entomol., 2005; 19(1):90-95, the contents of which are incorporated herein by reference. Frozen stocks of low-passage B31 B. burgdorferi isolates (Shelter Island, N.Y.) are reconstituted in BSK-H culture medium and maintained at 35° C. to log phase (Piesman, 1993). Spirochete cultures are diluted with BSK-H to a density of 4.7×10^7 viable spirochetes per mL as counted in a Petroff-Hauser chamber under dark-field microscopy, and distributed in 15 μL aliquots into 0.7 mL tubes for a total of 7.05×10^5 spirochetes per tube. A mean starting concentration of 155 live spirochetes per field is assessed prior to the addition of specific treatments. Each 15 μL aliquot of spirochetes in BSK-His treated with either 15 μL of sterile PBS, 15 μL of 1.33 mg/mL pilocarpine (based on the mid-range of pilocarpine found in previous analysis of tick saliva, (Ribeiro et al., 2004) in sterile PBS, or 15 μL of tick saliva, and incubated at 35° C. 10 μL samples taken from each of 10 prepared cultures and assessed for spirochete survival at 0, 24 and 48 h. Time points for spirochete survival assessment are chosen based on previous observations of post-feeding decreases in spirochete-positive ticks (Ryder et al., 1992). […]

Structure (SMILES) | percent control live spirochetes (B. burgdorferi) | average number of live spirochetes (mean) ([1]; 24 h post-exposure) | average number of live spirochetes (mean) ([1]; 48 h post-exposure)
CCCCCCCC/C=C\CCCCCCCCOCCOP(=O)([O-])OCC[N+](C)(C)C [OPC, oleyloxyethyl phosphorylcholine] | 76-78% | – | –
CC[C@@H]1C(=O)OC[C@@H]1Cc1cncn1C [pilocarpine] | – | 82.1 counts per 10 high powered (10 | 58.2 counts per 10 high powered (10
